The target of data set [1] is δ opioid receptor (Homo sapiens, UniProt P41143). Description: opioid receptor binding, δ receptor.
The nature of data set [2]: in vivo antinociception after i.c.v. administration. Also noted: species or system mice. The settings on record: i.c.v., mice; for A50 i.c.v.: antinociception.
Data set [3] concerns the target μ opioid receptor (Homo sapiens, UniProt P35372). The data set is described as follows: opioid receptor binding, μ receptor.
The nature of data set [4]: helicity by circular dichroism. The settings on record: for % α-helicity: CD, SDS micelles (30 mM), pH = 7.0, 18° C. The data set is classed as physicochemical. The procedure: Circular Dichroism. All of the circular dichroism experiments were carried out on Aviv Associates model 60DS using an Endcal Model RTE4DD water circulator as a temperature-control vehicle. The instrument was calibrated by using d-10-camphorsulphonic acid. The spectra were recorded between 200 and 250 nm by using the continuous mode with a 1.5 nm bandwidth, a three second response and a scan step of 0.5 nm in a cell with a path length of 0.1 cm. Three or five scans were accumulated and averaged for each spectrum. Glycopeptide stock solutions were prepared by weighing the required amount, using Cahn/Ventron Instruments Model 21 automatic analytical electrobalance, to make 1 mL of a 0.5-1.0 mM solution and the pH was adjusted to the desired value. Samples were prepared by diluting the stock solution to 70-80 μM. All observed spectra were baseline-subtracted and smoothed by adjacent average of 5 points using Microcal Origin Ver. 5.0 software (Microcal Software Inc, USA). The molar ellipticities were determined using the formula [θ]=[θ]obs·(MRW)/10·l·C, where [θ]obs observed ellipticity in millidegrees, MRW is the mean residue weight, l is the cell path length in centimeters and C is the glycopeptide concentration in mg/mL. The percent α-helicity was determined by using the formula % helix=[θ]n→π*/−40,000 (1−2.5/n)·100, where n represents the number of amide bonds (including the C-terminal amide) in the glycopeptide and [θ]n→π** is molar ellipticity of n→π* transition band at 222 nm.^55
Conformational Analysis by CD. Circular dichroism (CD) is a powerful and simple tool for identifying secondary structure in both peptides and proteins.^64 All the peptides were subjected to CD analysis in H2O, TFE-H2O mixtures, SDS micelles and phospholipid bicelles. In H2O, a negative band near 200 nm is observed that arises from the π→π* electronic transition and is typical of random coil peptides. […] This behavior is explained as nascent helices.^65 In these nascent helices, helix CD signals could be induced by the addition of TFE.^66 All the glycopeptides gave an increased helix CD signal in TFE. The percentage of helicity increases as TFE concentration increases, but reached a maximum at 30% TFE. The increase in helicity in TFE can be attributed to decreased competition by H2O for hydrogen bonding to the backbone amides. […] In the presence of SDS micelles and anionic bicelles, the band at 200 nm underwent a red shift (higher value) and an additional shoulder appears around 222 nm as a result of the n→π* transition. […] The negative maxima at 222 nm (n→π* transition band) is used to calculate the helical content of polypeptides and proteins. The accepted value for a peptide that is 100% helical is approximately −35,000. It was observed that changes in amplitude of the bands up to 30% depend on length of helix.^67 The amplitude increases as α-helical chain length increases. Therefore, one has to consider the importance of chain-length dependence of the α-helix CD in the quantitative treatment of helix content in proteins and polypeptides. The percentage of helicity is independent of SDS concentration and pH (data not shown). In the presence of zwitterionic bicelles all of the glycopeptides yielded CD spectra similar to that observed in H2O, but anionic bicelles forced them to become more helical. The intensities of the [θ]π→π* band and the [θ]n→π* band are expected to be almost equal for a perfect α-helical peptide. […] A modest blue shift and reduced intensity for the [θ]n→π* transition bands are observed for all the glycopeptides in TFE. […] The glycopeptides 9 (Pro/Glc) and 12 (Pro/Lactose), which differ only by the sugar moiety attached, adopt perfect helices in the presence of SDS micelles and in anionic bicelles. The disaccharide increased the percentage of helicity in all the solvents, relative to the monosaccharide. […] It is remarkable to note that a single amino acid mutation at position 6 produced profound changes in the CD spectra. […]
Background: Circular dichroism is the unequal absorption of left and right circularly polarised light.

The nature of data set [5]: helicity by NMR αCH chemical shift index. The data set is classed as physicochemical. The procedure: NMR Spectroscopy. All NMR spectra were recorded on a Bruker DRX600 600 MHz spectrometer. Glycopeptide concentration for the NMR experiments varied from 2-3 mM. The glycopeptides were prepared in TFE-water solution by dissolving the peptide in 0.6 ml solution of a premixed 30% TFE-water mixture. The micelle samples were prepared by dissolving the glycopeptide and 100 equivalent of perdeuterated SDS in 0.6 ml of H2O/D2O (9:1 ratio by volume). Bicelles were produced from deuterated phospholipids. The zwitterionic bicelles were made by mixing the short chain phospholipid dihexanoyl-sn-glycero-3-phosphatidylcholine-d22 (DHPC) and the long chain 1,2-dimyristoyl-sn-glycero-3-phosphatidylcholine-d54 (DMPC) in the molar ratio of 2:1 in H2O. The […] were prepared by substituting 10 mol % of 1,2-dimyristoyl-sn-glycero-3-phospho-1-glycerol-d54 (DMPG) for DMPC. The glycopeptide to bicelle ratio was 1:25. After the glycopeptide was added to the bicelle solution, the system was submitted to a series o f three freeze/thaw/slight vortex shaking cycles. The pH of the each sample was adjusted to 4.5 by using DCl or NaOD as necessary. TSP (3-(trimethylsilyl)-d4-propionic acid) was added as an internal standard. The experiments in F3CCD2OD/H2O mixtures were at 293 K and for experiments in micelles/bicelles were at 298 or 311 K. Two-dimensional double quantum filtered correlation (DQF-COSY), rotating-frame Overhauser enhancement^56 (ROESY), Nuclear Overhauser enhancement^57 (NOESY), and total correlation spectra^58 (TOCSY) were acquired using standard pulse sequences and processed using XWINNMR (Bruker Inc) and FELIX2000 (Accelrys Inc, San Diego, Calif.), Mixing times for TOCSY spectra were either 80 or 100 ms. Mixing times for ROESY spectra were 150 or 250 ms, and for NOESY spectra were 200 or 300 ms. All experiments were 750 increments in t1, 16/32/64 scans each, 1.5 s relaxation delay, size 2 or 4K, and the spectral processing was with shifted sine bell window multiplications in both dimensions.
αCH Chemical Shift Index. […] At this point there is no accepted random coil αCH values for glycosylated serine, CSI values for this position are uncertain. The conformational shift values for all solvents were obtained using the random coil values described by Wright and co-workers.^72 Although, these reference shifts were obtained at pH=5.0 at 4.2° C., they appear to be very insensitive to the conditions, as very small deviations (±0.04) were observed when random coil values are obtained at pH=7.0 at 35° C. by Wuthrich and co-workers.^68 The quantification of secondary structure based on αCH chemical shifts is neglected in the literature because various contributions cannot be strictly accounted for, such as electrostatic effects, ring current shifts, and other magnetic anisotropies. However, it is possible to make qualitative comparison of helical content between closely related (glyco)peptides. Since the 3rd generation glycopeptides differ by only one amino acid at position 6, the helical content was obtained based on the αCH chemical shift values (Table 3). The method described by Gierasch and co-workers^69a was used. First, the average conformational shift was calculated for each glycopeptide by adding all upfield shifts in the helical regions and dividing by the total number of peptide bonds. Then, to obtain the overall helical content for each glycopeptide, the average conformational shift was divided by 0.35 ppm, which was assigned for 100% helicity. Since, there are no random coil values available for β-Alanine and glycosylated serine residues, they were not included in the calculation. The helicogenic Aib residue lacks an α-proton, and there was no correction included in the calculation for the helicity provided by Aib residue. The helical content obtained by this method correlated with the helical content obtained by CD. […]

Data set [6] has as its target mu opioid receptor. The data set is described as follows: opioid receptor assay, format not described (Table 1, µ IC50).
Data set [7] addresses delta opioid receptor. Description: opioid receptor assay, format not described (Table 1, δ IC50).

Non-standard residues stand in square brackets, D forms with d. No end group written: not given here. *: point of attachment. βGlc = OC[C@H]1O[C@@H](*)[C@H](O)[C@@H](O)[C@@H]1O; Aib = CC(C)(N)C(=O)O; βAla = NCCC(=O)O Bounds are passed on as bounds.

Chain of mu opioid receptor (P35372 whole entry): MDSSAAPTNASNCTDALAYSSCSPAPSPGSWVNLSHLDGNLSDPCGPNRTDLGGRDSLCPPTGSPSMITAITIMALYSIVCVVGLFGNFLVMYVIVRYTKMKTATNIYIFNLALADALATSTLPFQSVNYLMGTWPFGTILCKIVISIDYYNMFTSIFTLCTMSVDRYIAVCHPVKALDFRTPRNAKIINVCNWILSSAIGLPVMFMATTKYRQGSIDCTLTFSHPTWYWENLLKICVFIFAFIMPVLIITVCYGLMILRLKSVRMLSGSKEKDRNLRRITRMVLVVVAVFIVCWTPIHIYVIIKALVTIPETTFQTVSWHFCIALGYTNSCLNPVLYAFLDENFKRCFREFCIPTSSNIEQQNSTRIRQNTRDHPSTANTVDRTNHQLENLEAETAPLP
Chain of μ opioid receptor (P35372 whole entry): as above
Chain of δ opioid receptor (P41143 whole entry): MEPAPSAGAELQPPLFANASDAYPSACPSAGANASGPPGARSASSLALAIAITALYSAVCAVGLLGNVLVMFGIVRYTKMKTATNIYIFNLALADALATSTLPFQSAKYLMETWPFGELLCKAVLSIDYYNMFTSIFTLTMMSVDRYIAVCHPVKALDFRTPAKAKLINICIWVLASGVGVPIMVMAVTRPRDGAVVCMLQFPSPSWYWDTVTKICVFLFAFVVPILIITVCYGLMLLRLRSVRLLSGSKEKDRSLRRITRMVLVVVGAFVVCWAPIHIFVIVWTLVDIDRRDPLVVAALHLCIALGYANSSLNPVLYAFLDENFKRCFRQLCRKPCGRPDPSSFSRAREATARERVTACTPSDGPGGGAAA

As to `CC(C)C[C@H](NC(=O)CNC(=O)[C@H](CC(C)C)NC(=O)[C@H](Cc1ccccc1)NC(=O)CNC(=O)[C@H](NC(=O)[C@@H](N)Cc1ccc(O)cc1)[C@H](C)O)C(=O)N[C@@H](CC(C)C)C(=O)N[C@@H](CCCCN)C(=O)N[C@@H](CO[C@@H]1O[C@H](CO)[C@@H](O)[C@H](O)[C@H]1O)C(=O)N[C@@H](Cc1ccccc1)C(=O)N[C@@H](C)C(=O)N[C@@H](CCC(=O)O)C(=O)N[C@@H](CO[C@@H]1O[C@H](CO)[C@@H](O)[C@H](O)[C@H]1O)C(=O)N[C@@H](Cc1c[nH]c2ccccc12)C(=O)N[C@@H](CO[C@@H]1O[C@H](CO)[C@@H](O)[C@H](O)[C@H]1O)C(=O)N[C@@H](CC(N)=O)C(=O)N[C@@H](Cc1ccccc1)C(N)=O` (relative stereo) [Glycopeptide 6, YtGFLGLLKS*FAES*WS*NF], the IC50 (usually the concentration at which inhibition is half-maximal) in data set [1] was 11.9 nM; in data set [3], 154 nM. The molecule also had an A50 i.c.v. in data set [2] of 0.028 nmol. Besides, the “% α-helicity” value in data set [4] is 37%.

Take `CC(C)C[C@H](NC(=O)[C@H](Cc1ccccc1)NC(=O)CNC(=O)[C@H](NC(=O)[C@@H](N)Cc1ccc(O)cc1)[C@H](C)O)C(=O)NCC(=O)N[C@@H](CCCCN)C(=O)N[C@@H](CO[C@@H]1O[C@H](CO)[C@@H](O)[C@H](O)[C@H]1O)C(=O)N[C@@H](Cc1ccccc1)C(=O)N[C@@H](C)C(=O)N[C@@H](CCC(=O)O)C(=O)N[C@@H](CC(C)C)C(=O)N[C@@H](Cc1c[nH]c2ccccc12)C(=O)N[C@@H](CO[C@@H]1O[C@H](CO)[C@@H](O)[C@H](O)[C@H]1O)C(=O)N[C@@H](CC(N)=O)C(=O)N[C@@H](Cc1ccccc1)C(=O)N[C@@H](CC(C)C)C(=O)N[C@@H](CO[C@@H]1O[C@H](CO)[C@@H](O)[C@H](O)[C@H]1O)C(N)=O` (relative stereo) [Glycopeptide 7, YtGFLGKS*FAELWS*NFLS*]: the IC50 amounted to 25.6 nM in data set [1] and 38.2 nM in data set [3]. The A50 i.c.v. in data set [2] came out at 0.096 nmol. Further, the “% α-helicity” value in data set [4] is given as 15%.

With YtGFLGALKS*FAES*LS*NA [Glycopeptide 5], the “% α-helicity” value in data set [4] was found to be 58%.

With YtGFLGLLKS*FWES*WS*NF [Glycopeptide 8], the “in vivo potency and duration of action (in words)” value in data set [2] (within 2nd generation series) was “lowest potency in vivo, but longest duration of action”. In addition, in data set [4], the “% α-helicity” value is reported as 39%.

For the molecule YtGFLPNLBEKALKS**L [Glycopeptide 12], the “% α-helicity by NMR” value in data set [5] (solvent H2O) was determined as 22%; in data set [5] (solvent SDS micelles), 29%; in data set [5] (solvent TFE) it was 34%. Further, the “% α-helicity by CD” value in data set [4] (solvent Bicelle A (anionic bicelles)) is 33%; in data set [4] (solvent H2O) it was greater than 1%; in data set [4] (solvent SDS micelles), 33%; in data set [4] (solvent TFE), 23%.

B1: Glycopeptide 10 (YtGFLβANLBEKALKS*L) (peptide)
peptide: Y[dT]GFL[βAla]NL[Aib]EKALKS(βGlc)L-NH2
Consider B1, for which the IC50 is 153 nM in data set [6] and 109 nM in data set [7].

B2: Glycopeptide 7 (YtGFLGKS*FAELWS*NFLS*) (peptide)
peptide: Y[dT]GFLGKS(βGlc)FAELWS(βGlc)NFLS(βGlc)-NH2
Turning to B2, the results for the IC50 in data set [6] and in data set [7] were 38.2 nM and 25.6 nM, respectively.

B3: Glycopeptide 2 (YtGFLGELAS*KWFNALES*) (peptide)
peptide: Y[dT]GFLGELAS(βGlc)KWFNALES(βGlc)-NH2
As to B3, the IC50 in data set [6] came to 144 nM; in data set [7], 9.5 nM.

B4: Glycopeptide 9 (YtGFLPNLBEKALKS*L) (peptide)
peptide: Y[dT]GFLPNL[Aib]EKALKS(βGlc)L-NH2
Regarding B4, the values for the IC50 in data set [6] and in data set [7] were 90.8 nM and 6.15 nM, respectively.

B5: Glycopeptide 11 (YtGFLGGNLBEKALKS*L) (peptide)
peptide: Y[dT]GFLGGNL[Aib]EKALKS(βGlc)L-NH2
As to B5, the IC50 stood at 53 nM in data set [6] and 32.5 nM in data set [7].

B6: Glycopeptide 6 (YtGFLGLLKS*FAES*WS*NF) (peptide)
peptide: Y[dT]GFLGLLKS(βGlc)FAES(βGlc)WS(βGlc)NF-NH2
As to B6, the IC50 worked out at 154 nM in data set [6] and 11.9 nM in data set [7].

The record behind these values is US7803764B2, “Amphipathic glycopeptides” (The Arizona Board of Regents on Behalf of the University of …, priority 2004, dated 2010).
